The target in one series is T1, recombinant human SIRT1 (Homo sapiens, UniProt Q96EB6).
T1 construct: purified, recombinant SIRT2^2–389, SIRT1^1–747, or SIRT3^1–400 protein (GenScript); purchased GenScript
T1 sequence (Q96EB6 1-747): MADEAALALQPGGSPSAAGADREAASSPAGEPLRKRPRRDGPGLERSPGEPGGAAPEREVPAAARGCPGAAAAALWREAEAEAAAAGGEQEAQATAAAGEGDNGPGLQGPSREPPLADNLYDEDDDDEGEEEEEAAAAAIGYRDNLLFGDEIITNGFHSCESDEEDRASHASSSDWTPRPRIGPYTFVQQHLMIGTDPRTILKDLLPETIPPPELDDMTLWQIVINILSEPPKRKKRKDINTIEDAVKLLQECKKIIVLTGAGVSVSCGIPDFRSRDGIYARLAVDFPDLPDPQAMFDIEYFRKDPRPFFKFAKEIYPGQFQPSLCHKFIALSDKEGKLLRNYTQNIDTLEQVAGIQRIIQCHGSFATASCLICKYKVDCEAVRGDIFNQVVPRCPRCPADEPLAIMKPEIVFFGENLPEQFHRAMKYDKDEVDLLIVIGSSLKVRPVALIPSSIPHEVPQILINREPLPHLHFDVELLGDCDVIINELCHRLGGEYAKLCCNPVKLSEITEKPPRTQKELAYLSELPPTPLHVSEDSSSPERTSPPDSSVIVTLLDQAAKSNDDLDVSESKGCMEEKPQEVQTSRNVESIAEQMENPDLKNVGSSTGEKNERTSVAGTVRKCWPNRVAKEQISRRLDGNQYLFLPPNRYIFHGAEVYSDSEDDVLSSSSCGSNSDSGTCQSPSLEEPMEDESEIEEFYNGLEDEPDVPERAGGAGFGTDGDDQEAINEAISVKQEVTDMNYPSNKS
The experiment in a line: SIRT deacylase assay, deacetylation of Ac-H3K9WW peptide, mass spectrometry. Type of series: biochemical. The note with it: Figure 1C; n = 3.

Series [1] relates to c-Myc in MDA-MB-231 breast adenocarcinoma cells. The experiment in a line: Western blot of c-Myc in MDA-MB-231 cells. The class given is cell-based, human. The following applies: 72 hours. How it is done: Supplemental Figure 1. […] (A) HepG2 cells were treated with FLS- […]
determined by western blot. Total a-tubulin was monitored as a control. (B) MDA-MB-231 cells or (C) MRC-5 fibroblasts were treated with drug for 72h and c-Myc was monitored by western blot with b-actin as a control. Western blots are representative of three independent experiments.
(§1) (1 picture or pasted object on this page, not shown here)
A general note: A western blot detects proteins with antibodies after separation by electrophoresis.

The nature of series [2]: Residual drug levels in MRC-5 cells and supernatant after washout, mass spectrometry. The class given is in vitro ADME, human. How it is done: Supplemental Figure 8. […] (A) Uninfected cells
After 24h, supernatant was collected, monolayers were washed 3x to remove drug and cells were replenished with drug-free media.
Supernatants and cells were then assayed for residual drug levels at 2, 24 or 72h post-release. (B-C) Supernatant and cell-associated drug concentrations were determined by mass spectrometry. (D) […]
monolayer of MRC-5 cells. Sampling of the supernatant was conducted after a 24h incubation at 37°C, followed by 3X washes with PBS, collection of the final wash, and replenishment of drug-free medium to the dishes. Supernatant samples were then collected at 24 and 72h post drug-removal. […]
concentrations as determined by mass spectrometry. Mean +/- SD is shown (n=3).
as §1

The next series has as its system HCMV DNA. The experiment in a line: Intracellular HCMV DNA accumulation by qPCR in MRC-5. The class given is cell-based, human cytomegalovirus. The note with it: 72 hours. For orientation: Real-time PCR tracks product formation cycle by cycle.
For series [3], the system named is HCMV TB40/E-mCherry-UL99eGFP. Put plainly: Infectivity of HCMV progeny particles (DNase I-resistant viral DNA vs TCID50). The class given is cell-based, human cytomegalovirus.
A further series relates to HCMV virions. On the set-up: species or system human cytomegalovirus. The note with it: 1 or 5 μM; 96 hours at 37°C.
The nature of series [4]: Mouse pharmacokinetics, plasma. The following applies: single 50 mg/kg p.o., female BALB/c mice. Type of series: in vivo. How it is done:
The pharmacokinetics study used fed female BALB/c mice (22 g, n = 3 per time point). Blood samples (~30 μL via saphenous vein puncture) were taken at 0.25, 0.5, 1, 2, 4, 8, and 24 hours. […] The lower limit of quantification was 10 ng/mL. An aliquot of 10 μL plasma sample was mixed with 10 μL terfenadine solvent plus 2 μL methanol. An additional 200 μL of terfenadine solvent was added, and the resulting mixture was vortexed for 1 minute and centrifuged at 1,500g for 15 minutes. The supernatant was diluted 10× with methanol/water (1:1 vol/vol with 0.1% formic acid), and 2 μL aliquots were analyzed using a QTRAP 4000 LC-MS/MS System (Sciex) with a C18 column (Kinetex). Pharmacokinetic parameters were determined with the noncompartmental analysis tool in WinNonlin (Certara).
Plasma samples from groups
Mean +/- SD is presented.

A short description of series [5]: Host cell cytotoxicity, PHH. The note with it: human.
[6] abbreviates: 72 hours after drug removal, treated 24 h with 5 µM.

SMILES strings stand for the structures. Some results are limits rather than exact numbers.

In general, IC50 refers to the concentration that gives 50% inhibition. What is called Cmax is the peak of the concentration-time curve. For orientation: AUC(0-inf) means total exposure, with the tail of the curve extrapolated. A lower AUC(0-inf) goes with less exposure. Usually Tmax stands for the time from dosing to the highest level. What is called CC50 is the concentration giving 50% cytotoxicity. Higher therefore signals lower toxicity to the cells. On to `Cc1cn(-c2ccc3c(c2)CN(c2ncc(Cc4ccc(-n5cccn5)cc4)s2)CC3)c(C)n1` [FLS-359, 7-(2,4-dimethyl-1H-imidazol-1-yl)-2-(5-{[4-(1H-pyrazol-1-yl)phenyl]methyl}-1,3-thiazol-2-yl)-1,2,3,4-tetrahydroisoquinoline], for which the IC50 on recombinant human SIRT1 was over 100 µM. For the same compound, the c-Myc protein level result in series [1] was “dramatically reduced”. Moreover, the “removal of drug from culture dishes without cells” value in series [2] (5 µM in medium, no cells) is recorded as “efficiently removed by washing”. For the same compound, in series [2] (setting [6]), the “drug level in cells” value is ~ 5 μM and the “drug level in supernatant” value is listed as ~ 0.4 μM. The “intracellular viral DNA accumulation” value in the series with HCMV DNA (3 IU/cell) is recorded as “compromised”. Besides, in the series with HCMV DNA (Figure 8B), the “reduction in intracellular viral DNA levels” value was “approximately 3 fold”. Moreover, the “reduction of particle/infectious unit ratio (infectivity)” value in series [3] (1.0 μM, 2 hpi to 96 hpi, 1 IU/cell) was determined as 14.5 factor. For the same compound, the reduced infectivity result in series [3] (2.5 or 5.0 μM, 2 hpi to 96 hpi) is listed as “more than 1,690 fold”. Moreover, the “reduction in extracellular virus particles” value in series [3] (Figure 8E) is “approximately 70 fold”. Besides, the “reduction of viral infectivity” value in series [3] (Figure 8E, discussion) is listed as “more than 1,600 fold”. Besides, the “effect of incubating virus stock with drug on infectivity” value with HCMV virions is “no significant effect on infectivity”. For the same compound, in series [4] (female, BALB/c, mouse, in vivo, po, 50 mg/kg, read-out: plasma half-life (T1/2) (converted)), the half-life is 5.8 ± 1.4 h. The highest level in series [4] (female, BALB/c, mouse, plasma, po, 50 mg/kg) (Cmax) was 89.3 ± 11 µM. Besides, in series [4] (mouse, plasma, po), the area under the curve AUC(0-inf) turned out to be 713 µM·h and the Tmax came to 2 h. The peak level in series [4] (plasma, 50 mg/kg) (Cmax) was 89 µM. For the same compound, the CC50 in series [5] was over 10 µM.

The record behind these values is publication PMC10266789 (The Journal of Clinical Investigation, 2023).
